Values after ≈ are worked out from the molar mass of the structure shown. Like-named read-outs stand apart in the source and are kept apart here.
Key:
[1] = test system: Escherichia coli (ATCC 11229); test: Bactericidal activity (colony count, MBC); assay type: cell-based
Method: To determine the bactericidal activity, we used Escherichia coli (ATCC 11229). The bacterial culture was diluted in sterile saline to prepare inocula. Various test articles were transferred to individual tubes already containing 1.0×10^5 to 2.0×10^5 Colony Forming Units (CFU)/mL bacteria and mixed by gentle vortexing and then incubated at 37° C. for 1 or 24 hours. In an attempt to mimic as far as possible the conditions, which could be produced in vivo if the test articles were used as antiseptics, bacterial plating in a Petri dish was performed immediately after the designated exposure time without the addition of a neutralizer, and independently with addition of neutralizer (as control). Thus, 0.1 mL was removed after 1 or 24 hours exposure times and plated. Plates were incubated at 37° C., and the numbers of bacteria were counted by direct colony count to numerate the surviving bacteria as CFU/mL. Positive growth controls were made with sterile 0.9% saline. All test articles were tested three times.

[2] = test system: human adenovirus type 5 (Ad5, McEwen strain); test: Antiviral plaque assay on A549 cell monolayer; assay type: cell-based; conditions: virus mixed with sample 1 hr at 37C; for Effect on monolayer (plaques counted), 10^−0 undiluted: dilution 10^−0; for Effect on monolayer (plaques counted), 10^−1: dilution 10^−1; for Effect on monolayer (plaques counted), 10^−2: dilution 10^−2; for Effect on monolayer (plaques counted), 10^−3: dilution 10^−3; for Effect on monolayer (plaques counted), 10^−4: dilution 10^−4; for Effect on monolayer (plaques counted), 10^−5: dilution 10^−5; for Effect on monolayer (plaques counted), 10^−6: dilution 10^−6
Method: An equal volume of human adenovirus type 5 (Ad5, McEwen strain) was mixed with each of the three samples listed below. The mixtures were incubated at 37C for 1 hr and then diluted in tissue culture medium (Dulbecco's Modified Eagle Medium [DMEM] containing heat inactivated 2% fetal bovine serum). The mixtures were then diluted in 10-fold serial dilutions using the same diluent mentioned above. 0.1 ml of each diluted mixture was inoculated on to a A549 cell monolayer grown in 12 well plates (cell source, ATTC) and allowed to adsorb for 1 hr. The inoculum was removed and the monolayer rinsed with diluent and agarose/DMEM overlay applied. The plates were incubated at 37° C. in 5% CO2 atmosphere for 6 days. The monolayers were then fixed, stained and the plaques counted.

[3] = test system: Primary Human Skin Fibroblasts; test: XTT cytotoxicity assay on primary human skin fibroblasts; assay type: cell-based
Method: Cytotoxicity was assessed by a colorimetric assay system, initially described by Scudiero et al., using 3′-(phenylamino-carbonyl)-3,4-tetrazolium-bis (4-methoxy-6-nitro) benzene sulfonic acid hydrate (XTT), ProCheck™ cell viability assay (Evaluation of a soluble tetrazolium/formazan assay for cell growth and drug sensitivity in culture using human and other tumor cell lines described by Scudiero D A, Shoemaker R A H, Paul K D, Monks A, Tierney S, Nofziger T H, Currens M J, Seniff D, Boyd M R. Cancer Res. 1988 Septmeber 1;48(17):4827-33). […] Three cell types were used: mouse lung epithelial cells (L929), primary human skin fibroblast and primary human keratinocyte cells cultured in Dulbecco Modified Eagle's Medium and Keratinocyte defined medium with corresponding growth factors plus antibiotics. Cells were trypsinized and counted under the microscope and seeded at 1000-to-2000 cells per well of a flat-bottom 96-well plate. Cells were allowed to grow over-night at 37° C. Next day, tissue culture media was removed and cells were rinsed with fresh media 1× and then left in 50 μL of tissue culture media. Test articles were prepared as 2-fold dilutions and 200 μL was added into each set of 4-wells (total volume per well=250 μL). Cells were exposed to test articles for 60 min at room temperature. Immediately after the exposed time, test article from each well was removed and cells were fed with 250 μL of fresh media. Plates were incubated at 37° C. for 18-20 hours. The following day media was removed again and replaced with 100 μL/well of fresh media containing 10/100 μL XTT-reagent. Cells were incubated under growth conditions (5% CO2 at 37° C. humidified incubator), protected from light, until color development was achieved. Absorbance was read at 450 nm with reference wavelength at 750 nm using Molecular Device ThermoMax Plate reader, blanking the plate on the medium-only assay blank wells. Untreated cells receiving XTT reagents-only served as positive cell proliferation control.

[4] = assay type: physicochemical
Text: N,N-dichlorotaurine can be identified and quantitatively determined by UV spectroscopy.

[5] = UV-vis spectrum and concentration of NNDCT solutions at varying pH; assay type: physicochemical; conditions: 1.49 mM, pH 3.0 to 5.0
Method: The spectra and the concentrations of the solutions were measured on the UV-vis spectrometer.
Add 8.8 g NaCl, 2 ml of 1.0 M HCl, and 0.278 g of taurine into a 1000-ml volumetric flask, followed by adding about 800 ml of deionized water into the flask. Shake the flask to dissolve NaCl and taurine powders. Then add […] of 0.15M of the NaOCl solution into the flask. Fill the flask up to the mark with deionized water. Stir the solution with a magnetic stirring bar for 5 minutes. The concentration and the pH of the resulting solution were measured on a UV-vis spectrometer and a freshly calibrated Beckman pH meter. This solution has a concentration of 1.49 mM and a pH value of 3.85. […] The final pH of this solution is 3.0. […] The final pH of this solution is 4.85.

[6] = assay type: physicochemical; remark: listed apart in the source
Text: NNDCT and NCT are spectrophotometrically distinguishable. NCT has a maximum absorbance at 252 nm. […] The solution was sealed in ampoules.

[7] = pH=1.88, after 100 hours; cited from earlier work
[8] = Volatility test, tightly vs loosely capped bottles; assay type: physicochemical; conditions: 1.47 mM in 0.9% saline
Method: NNDCT is not volatile. A solution of 1.47 mM in 0.9% saline at pH 3.5 was filled in two glass bottles. One bottle was capped tightly and another was capped loosely.

[9] = XTT cytotoxicity assay on L929 cells; assay type: cell-based; conditions: mouse
Method: Cytotoxicity was assessed by a colorimetric assay system, initially described by Scudiero et al., using 3′-(phenylamino-carbonyl)-3,4-tetrazolium-bis (4-methoxy-6-nitro) benzene sulfonic acid hydrate (XTT), ProCheck™ cell viability assay (Evaluation of a soluble tetrazolium/formazan assay for cell growth and drug sensitivity in culture using human and other tumor cell lines described by Scudiero D A, Shoemaker R A H, Paul K D, Monks A, Tierney S, Nofziger T H, Currens M J, Seniff D, Boyd M R. Cancer Res. 1988 Septmeber 1;48(17):4827-33). […] Three cell types were used: mouse lung epithelial cells (L929), primary human skin fibroblast and primary human keratinocyte cells cultured in Dulbecco Modified Eagle's Medium and Keratinocyte defined medium with corresponding growth factors plus antibiotics. Cells were trypsinized and counted under the microscope and seeded at 1000-to-2000 cells per well of a flat-bottom 96-well plate. Cells were allowed to grow over-night at 37° C. Next day, tissue culture media was removed and cells were rinsed with fresh media 1× and then left in 50 μL of tissue culture media. […] Absorbance was read at 450 nm with reference wavelength at 750 nm using Molecular Device ThermoMax Plate reader, blanking the plate on the medium-only assay blank wells. […]

[10] = Escherichia coli, ATCC11229, Table 2, pH 3.5, read-out: MBC
[11] = Homo sapiens, Skin fibroblast, Table 2, pH 3.5, in vitro cytotoxicity, read-out: IC50

With `OCl` [HOCl, hypochlorous acid, reference compound] the MBC [1, 10] was 0.16 mg/L (≈ 3.05 µM), the “effective antimicrobial concentration range” value ([1]; pH 3.5, 60 min, 37° C.) was no less than 0.016 mM and the “effective antimicrobial concentration range” value ([1]; pH 3.5, 24 hrs, 37° C.) was no less than 0.0016 mM. The “Effect on monolayer (plaques counted), 10^−0 undiluted” value [2] was 14, the “Effect on monolayer (plaques counted), 10^−1” value [2] was 9 and the “Effect on monolayer (plaques counted), 10^−2” value [2] was 3. The “Effect on monolayer (plaques counted), 10^−3” value [2] was 1, the “Effect on monolayer (plaques counted), 10^−4” value [2] was 4 and the “Effect on monolayer (plaques counted), 10^−5” value [2] was 4. For the same molecule, the “Effect on monolayer (plaques counted), 10^−6” value [2] was 1 and the IC50 [3, 11] was 47 mg/L (≈ 896 µM).
With `O=S(=O)(O)CCNCl` [NCT, N-chlorotaurine] the “factor by which less antimicrobial than NNDCT on an equal concentration basis” value [1] was 1000 fold and the MBC ([1]; Escherichia coli, ATCC11229, 1 h, pH 9.5, read-out: MBC (Minimum Bactericidal Concentration)) was 142 mg/L (≈ 893 µM).
In the case of `O=S(=O)(O)CCN(Cl)Cl` [NNDCT, N,N-dichlorotaurine], the solubility in water [4] is reported as “very soluble”, the “killing efficiency of NNDCT at pH 3.5 as compared to NCT at pH 9.5” value ([1]; 60 min exposure, 37° C.) is reported as 1000 fold and the “killing efficiency of NNDCT at pH 3.5 over NNDCT at pH 5.0” value ([1]; 60 min exposure, 37° C.) is reported as “about 300 fold”. The MBC ([1]; Escherichia coli, ATCC11229, 1 h, pH 3.5, isotonic solution, 60 min, 37° C., read-out: MBC (Minimum Bactericidal Concentration)) was 0.136 mg/L (≈ 0.701 µM), the MBC ([1]; Escherichia coli, ATCC11229, 1 h, pH 5.0, isotonic solution, 60 min, 37° C., read-out: MBC (Minimum Bactericidal Concentration)) was 38 mg/L (≈ 196 µM) and the MBC [1, 10] was 0.29 mg/L (≈ 1.49 µM). The “effectiveness against E. coli compared with HOCl” value ([1]; pH 3.5) was “better or as effective”, the “spectrum and concentration of NNDCT solution over pH range” value [5] was “did not change” and the “loss of N,N-dichlorotaurine” value ([6]; solution in a vial stored in a refrigerator, three months) was “no more than 13%”. For the same molecule, the NNDCT lost ([6]; solution pH 3.5, sealed ampoules, refrigerator (4° C.), 4 weeks, initial 1.47 mM) was 5.4%, the “loss of N,N-dichlorotaurine” value [7] was “less than 5%” and the volatility ([8]; pH 3.5) was “not volatile”. The “difference in concentration between tightly and loosely capped bottle” value ([8]; pH 3.5, 4 weeks, room temperature) was “no difference”, the viability at 60 min, 7 mM [9] was greater than 90% and the IC50 [3, 11] was 1440 mg/L (≈ 7430 µM).
For `CC(C)(CS(=O)(=O)O)N(Cl)Cl` [Sample 1, N,N-dichloro-1,1-dimethylethanesulphonic acid], the “Effect on monolayer (plaques counted), 10^−0 undiluted” value [2] was “Early toxic”, the “Effect on monolayer (plaques counted), 10^−1” value [2] was 28 and the “Effect on monolayer (plaques counted), 10^−2” value [2] was 17. The “Effect on monolayer (plaques counted), 10^−3” value [2] was 3, the “Effect on monolayer (plaques counted), 10^−4” value [2] was 3 and the “Effect on monolayer (plaques counted), 10^−5” value [2] was 3. The “Effect on monolayer (plaques counted), 10^−6” value [2] was 9.
Povidone-Iodine [reference compound] gave an MBC ([1]; Table 2, pH 4.2) of 0.38 mg/L and an IC50 ([3]; Table 2, pH 4.2, in vitro cytotoxicity) of 2.5 mg/L.

From US7846971B2, “N-halogenated amino acids, N,N-dihalogenated amino acids and derivatives; compositions and methods of using them” (Novabay Pharmaceuticals, Inc., priority 2005, dated 2010)
